Assay [1] in a line: The binding affinities (Ki) of compounds were determined using fluorescence polarization assays (FPA) that measure their ability to competitively displace a Bad-derived peptide from Bcl-xL. IC50 values were binding affinities measured in the presence of 10% human serum. Compound efficacy (EC50) in a cellular co. As to conditions: pH 7.4. In general terms: In fluorescence polarisation assays a small probe gives low polarisation when free and higher when bound to something large.

A short description of assay [2]: The binding affinities (Ki) of compounds were determined using fluorescence polarization assays (FPA) that measure their ability to competitively displace a Bad-derived peptide from Bcl-xL. Compound efficacy (EC50) in a cellular context was evaluated by testing their ability to reverse the protection from cytokine w.

pEC50: −log10 of the molar value. Several values for one entry are separate records, joined by “and”; a condition that tells them apart may be missing. Identical values can stand only once. Some results are limits rather than exact numbers.

As usually defined, the pEC50 is the negative decadic logarithm of the EC50, by convention in mol/L.

With `COC1(Cc2ccccc2)CCN(c2ccc(C(=O)NS(=O)(=O)c3ccc(N[C@H](CCN(C)C)CSc4ccccc4)c([N+](=O)[O-])c3)cc2)CC1` [4-(4-benzyl-4-methoxypiperidin-1-yl)-N-[(4-{[(2R)-4-(dimethylamino)-1-(phenylsulfanyl)butan-2-yl]amino}-3-nitrobenzene)sulfonyl]benzamide], the figures for the pEC50 in assay [1] and in assay [2] were 6.17 and 6.03, respectively.

For `COC1(CC2CCCCC2)CCN(c2ccc(C(=O)NS(=O)(=O)c3ccc(N[C@H](CCN(C)C)CSc4ccccc4)c([N+](=O)[O-])c3)cc2)CC1` [4-[4-(cyclohexylmethyl)-4-methoxypiperidin-1-yl]-N-[(4-{[(2R)-4-(dimethylamino)-1-(phenylsulfanyl)butan-2-yl]amino}-3-nitrobenzene)sulfonyl]benzamide], the results for the negative-log EC50 (pEC50) in assay [1] and in assay [2] were 6.49 and 6.70, respectively.

As to `COC1(Cc2ccccc2Br)CCN(c2ccc(C(=O)NS(=O)(=O)c3ccc(N[C@H](CCN(C)C)CSc4ccccc4)c([N+](=O)[O-])c3)cc2)CC1` [4-{4-[(2-bromophenyl)methyl]-4-methoxypiperidin-1-yl}-N-[(4-{[(2R)-4-(dimethylamino)-1-(phenylsulfanyl)butan-2-yl]amino}-3-nitrobenzene)sulfonyl]benzamide], the results for the negative logarithm of the EC50 (pEC50) in assay [1] and in assay [2] were 7.00 and 6.70, respectively.

As to `COC1(Cc2ccccc2Cl)CCN(c2ccc(C(=O)NS(=O)(=O)c3ccc(N[C@H](CCN(C)C)CSc4ccccc4)c([N+](=O)[O-])c3)cc2)CC1` [4-{4-[(2-chlorophenyl)methyl]-4-methoxypiperidin-1-yl}-N-[(4-{[(2R)-4-(dimethylamino)-1-(phenylsulfanyl)butan-2-yl]amino}-3-nitrobenzene)sulfonyl]benzamide], the results for the pEC50 in assay [1] and in assay [2] were 6.64 and 6.74, respectively.

In the case of `CN(C)CC[C@H](CSc1ccccc1)Nc1ccc(S(=O)(=O)NC(=O)c2ccc(N3CCC(=Cc4ccccc4Cl)CC3)cc2)cc1[N+](=O)[O-]` [4-{4-[(2-chlorophenyl)methylidene]piperidin-1-yl}-N-[(4-{[(2R)-4-(dimethylamino)-1-(phenylsulfanyl)butan-2-yl]amino}-3-nitrobenzene)sulfonyl]benzamide], the pEC50 was 6.46 in assay [1] and 6.35 in assay [2].

For the compound `CN(C)CC[C@H](CSc1ccccc1)Nc1ccc(S(=O)(=O)NC(=O)c2ccc(N3CCC(=Cc4ccccc4C#N)CC3)cc2)cc1[N+](=O)[O-]` [4-{4-[(2-cyanophenyl)methylidene]piperidin-1-yl}-N-[(4-{[(2R)-4-(dimethylamino)-1-(phenylsulfanyl)butan-2-yl]amino}-3-nitrobenzene)sulfonyl]benzamide], the negative logarithm of the EC50 (pEC50) in assay [1] was 5.96; in assay [2] it was 5.80.

For `COC1(Cc2cccc(Cl)c2)CCN(c2ccc(C(=O)NS(=O)(=O)c3ccc(N[C@H](CCN(C)C)CSc4ccccc4)c([N+](=O)[O-])c3)cc2)CC1` [4-{4-[(3-chlorophenyl)methyl]-4-methoxypiperidin-1-yl}-N-[(4-{[(2R)-4-(dimethylamino)-1-(phenylsulfanyl)butan-2-yl]amino}-3-nitrobenzene)sulfonyl]benzamide], the results for the pEC50 in assay [1] and in assay [2] were 6.60 and 6.52, respectively.

With `COC1(Cc2ccc(Cl)cc2)CCN(c2ccc(C(=O)NS(=O)(=O)c3ccc(N[C@H](CCN(C)C)CSc4ccccc4)c([N+](=O)[O-])c3)cc2)CC1` [4-{4-[(4-chlorophenyl)methyl]-4-methoxypiperidin-1-yl}-N-[(4-{[(2R)-4-(dimethylamino)-1-(phenylsulfanyl)butan-2-yl]amino}-3-nitrobenzene)sulfonyl]benzamide], the negative-log EC50 (pEC50) is 6.40 in assay [1] and 6.30 in assay [2].

For the compound `CN(C)CC[C@H](CSc1ccccc1)Nc1ccc(S(=O)(=O)NC(=O)c2ccc(N3CCC(=Cc4ccc(Cl)cc4)CC3)cc2)cc1[N+](=O)[O-]` [4-{4-[(4-chlorophenyl)methylidene]piperidin-1-yl}-N-[(4-{[(2R)-4-(dimethylamino)-1-(phenylsulfanyl)butan-2-yl]amino}-3-nitrobenzene)sulfonyl]benzamide], the pEC50 was 6.21 in assay [1] and 5.93 in assay [2].

Turning to `CN(C)CC[C@H](CSc1ccccc1)Nc1ccc(S(=O)(=O)NC(=O)c2ccc(N3CCC(=Cc4ccccc4C(F)(F)F)CC3)cc2)cc1[N+](=O)[O-]` [N-[(4-{[(2R)-4-(dimethylamino)-1-(phenylsulfanyl)butan-2-yl]amino}-3-nitrobenzene)sulfonyl]-4-(4-{[2-(trifluoromethyl)phenyl]methylidene}piperidin-1-yl)benzamide], the pEC50 is 6.82 in assay [1] and 6.68 in assay [2].

For `CN(C)CC[C@H](CSc1ccccc1)Nc1ccc(S(=O)(=O)NC(=O)c2ccc(N3CCC(=Cc4ccc(C(F)(F)F)cc4)CC3)cc2)cc1[N+](=O)[O-]` [N-[(4-{[(2R)-4-(dimethylamino)-1-(phenylsulfanyl)butan-2-yl]amino}-3-nitrobenzene)sulfonyl]-4-(4-{[4-(trifluoromethyl)phenyl]methylidene}piperidin-1-yl)benzamide], the negative logarithm of the EC50 (pEC50) in assay [1] was 5.59; in assay [2], 5.44.

With `COC1(CC(C)(C)C)CCN(c2ccc(C(=O)NS(=O)(=O)c3ccc(N[C@H](CCN(C)C)CSc4ccccc4)c([N+](=O)[O-])c3)cc2)CC1` [N-[(4-{[(2R)-4-(dimethylamino)-1-(phenylsulfanyl)butan-2-yl]amino}-3-nitrobenzene)sulfonyl]-4-[4-(2,2-dimethylpropyl)-4-methoxypiperidin-1-yl]benzamide], the pEC50 in assay [1] was 6.12; in assay [2], 6.00.

Consider `COC1(CC(C)C)CCN(c2ccc(C(=O)NS(=O)(=O)c3ccc(N[C@H](CCN(C)C)CSc4ccccc4)c([N+](=O)[O-])c3)cc2)CC1` [N-[(4-{[(2R)-4-(dimethylamino)-1-(phenylsulfanyl)butan-2-yl]amino}-3-nitrobenzene)sulfonyl]-4-[4-methoxy-4-(2-methylpropyl)piperidin-1-yl]benzamide], for which the negative-log EC50 (pEC50) in assay [1] is 6.24; in assay [2] it was 6.15.

For `COC1(Cc2ccccc2F)CCN(c2ccc(C(=O)NS(=O)(=O)c3ccc(N[C@H](CCN(C)C)CSc4ccccc4)c([N+](=O)[O-])c3)cc2)CC1` [N-[(4-{[(2R)-4-(dimethylamino)-1-(phenylsulfanyl)butan-2-yl]amino}-3-nitrobenzene)sulfonyl]-4-{4-[(2-fluorophenyl)methyl]-4-methoxypiperidin-1-yl}benzamide], the negative-log EC50 (pEC50) in assay [1] was 6.74; in assay [2], 7.00.

Turning to `CN(C)CC[C@H](CSc1ccccc1)Nc1ccc(S(=O)(=O)NC(=O)c2ccc(N3CCC(=Cc4ccccc4F)CC3)cc2)cc1[N+](=O)[O-]` [N-[(4-{[(2R)-4-(dimethylamino)-1-(phenylsulfanyl)butan-2-yl]amino}-3-nitrobenzene)sulfonyl]-4-{4-[(2-fluorophenyl)methylidene]piperidin-1-yl}benzamide], the pEC50 in assay [1] was 6.60; in assay [2], 6.46.

For the compound `COc1ccccc1C=C1CCN(c2ccc(C(=O)NS(=O)(=O)c3ccc(N[C@H](CCN(C)C)CSc4ccccc4)c([N+](=O)[O-])c3)cc2)CC1` [N-[(4-{[(2R)-4-(dimethylamino)-1-(phenylsulfanyl)butan-2-yl]amino}-3-nitrobenzene)sulfonyl]-4-{4-[(2-methoxyphenyl)methylidene]piperidin-1-yl}benzamide], the pEC50 was 6.52 in assay [1] and 6.60 in assay [2].

For `CN(C)CC[C@H](CSc1ccccc1)Nc1ccc(S(=O)(=O)NC(=O)c2ccc(N3CCC(=Cc4ccccc4-c4ccccc4)CC3)cc2)cc1[N+](=O)[O-]` [N-[(4-{[(2R)-4-(dimethylamino)-1-(phenylsulfanyl)butan-2-yl]amino}-3-nitrobenzene)sulfonyl]-4-{4-[(2-phenylphenyl)methylidene]piperidin-1-yl}benzamide], the negative logarithm of the EC50 (pEC50) in assay [2] is 6.80 and 6.74.

As for `CN(C)CC[C@H](CSc1ccccc1)Nc1ccc(S(=O)(=O)NC(=O)c2ccc(N3CCC(=Cc4ccc(F)cc4)CC3)cc2)cc1[N+](=O)[O-]` [N-[(4-{[(2R)-4-(dimethylamino)-1-(phenylsulfanyl)butan-2-yl]amino}-3-nitrobenzene)sulfonyl]-4-{4-[(4-fluorophenyl)methylidene]piperidin-1-yl}benzamide], the values for the pEC50 in assay [2] and in assay [2] (pH 7.4) were 6.22 and 6.42, respectively.

Take `Cc1ccc(S(=O)(=O)N2CCN(c3ccc(C(=O)NS(=O)(=O)c4ccc(N[C@H](CCN(C)C)CSc5ccccc5)c([N+](=O)[O-])c4)cc3)CC2)cc1` [N-[(4-{[(2R)-4-(dimethylamino)-1-(phenylsulfanyl)butan-2-yl]amino}-3-nitrobenzene)sulfonyl]-4-{4-[(4-methylbenzene)sulfonyl]piperazin-1-yl}benzamide]: the pEC50 in assay [2] and in assay [2] (pH 7.4) was under 4.70 throughout.

For the compound `COc1ccccc1CC1(OC)CCN(c2ccc(C(=O)NS(=O)(=O)c3ccc(N[C@H](CCN(C)C)CSc4ccccc4)c([N+](=O)[O-])c3)cc2)CC1` [N-[(4-{[(2R)-4-(dimethylamino)-1-(phenylsulfanyl)butan-2-yl]amino}-3-nitrobenzene)sulfonyl]-4-{4-methoxy-4-[(2-methoxyphenyl)methyl]piperidin-1-yl}benzamide], the pEC50 in assay [1] was 6.82; in assay [2], 6.60.

Take `COC1(Cc2ccccc2C)CCN(c2ccc(C(=O)NS(=O)(=O)c3ccc(N[C@H](CCN(C)C)CSc4ccccc4)c([N+](=O)[O-])c3)cc2)CC1` [N-[(4-{[(2R)-4-(dimethylamino)-1-(phenylsulfanyl)butan-2-yl]amino}-3-nitrobenzene)sulfonyl]-4-{4-methoxy-4-[(2-methylphenyl)methyl]piperidin-1-yl}benzamide]: the negative logarithm of the EC50 (pEC50) was 6.82 in assay [1] and 6.70 in assay [2].
